{"source": "patent US9173972B2", "about": "“Methods and compositions for promoting wound healing” (priority 2005, dated 2015); for Antibiotic resistance profile: key: R = resistant; I = intermediate; S = sensitive", "key": {"[1]": {"test_system": "surface ulcers of Koi (multiple antibiotic-resistant pathogenic species)", "assay": "Immersion bath treatment of Koi suffering from surface ulcers", "format": "in vivo, Koi (Cyprinus carpio)", "settings": "antibiotic injected directly into the fish, before the bath treatment", "description": "An immersion treatment of the infected animals of 5 to 10 minutes on alternate days over a six day period promoted healing of most ulcers.\nAll of the treated fish had previously been given injections of Azactam, Baytril, and Amikacin. […] Among the species of bacteria found in the ulcers of the fish were representatives of the genera Aeromonas, Proteus, Klebsiella, Staphylococcus, Streptococcus, Enterobacter and Flavobacterium.\nAll fish were housed in a communal “hospital tank” before treatment and moved to an isolation tank after each treatment. The temperature of the bath was adjusted to that of the hospital tank temperature, 24 C, and adequate aeration was supplied to the treatment tank. Eight of the fish had external ulcers of various dimensions. Two of the fish were dropsied."}, "Pseudomonas aeruginosa [2]": {"test_system": "Pseudomonas aeruginosa", "assay": "MIC/MBC microtiter dilution and checkerboard of EDTA-Tris and neomycin", "format": "cell-based", "description": "(§1) This example describes a method for determining the FIC values set forth in Example 4. […] Agents and Chem. pp. 210-217 (1967); and Sparks et al., Vet. Res. Comm. 18:241-249 (1994). Each of the foregoing publications are incorporated herein by reference.\n(§2) Then 0.05 ml of an 18-hour old culture of a test organism, containing […] colony-forming units (CFU) ml, were added to each well. Controls for the culture and media were included in each plate. Plates were covered and incubated at 37° C. for 18-24 hours.\n(§3) To generate isobolograms, FICs of the two test solutions were plotted individually on the x-axis and y-axis to determine the effect of combining the two test solutions on bacterial growth. A line that curves away from the zero point and the coordinates indicated antagonism. […] Goodman and Gilman, pp. 1085-1086 (Macmillan Publishing Co., New York, 1985); Sabath, L. D., Antimicrob. Agents and Chem. pp. 210-217 (1967) and incorporated herein by reference in their entireties.\n(§4) 307 (pub: Am. Soc. Microbiol. Williams and Wilkins, Baltimore 1970), incorporated herein by reference in its entirety."}, "Enterococcus faecalis": {"test_system": "Enterococcus faecalis", "assay": "MIC/MBC microtiter dilution and checkerboard of EDTA-Tris and neomycin", "format": "cell-based", "description": "as §1, §2, §3, §4"}, "Staphylococcus aureus": {"test_system": "Staphylococcus aureus", "assay": "MIC/MBC microtiter dilution and checkerboard of EDTA-Tris and neomycin", "format": "cell-based", "description": "as §1, §2, §3, §4"}, "[3]": {"test_system": "Staphylococcus aureus isolated from burn patients", "assay": "Antibiotic resistance profile, disc diffusion method", "format": "cell-based", "settings": "S. aureus"}, "[4]": {"test_system": "Pseudomonas aeruginosa isolated from burn patients", "assay": "Antibiotic resistance profile, disc diffusion method", "format": "cell-based", "settings": "P. aeruginosa"}, "[5]": {"test_system": "Enterococcus faecalis isolated from burn patients", "assay": "Antibiotic resistance profile, disc diffusion method", "format": "cell-based", "settings": "E. faecalis"}, "Pseudomonas aeruginosa [6]": {"test_system": "Pseudomonas aeruginosa", "assay": "MIC and MBC, isolates from dogs with otitis externa and pyoderma", "format": "cell-based", "settings": "P. aeruginosa (dog isolate); multiple of the 1x stock solution of the tested composition", "description": "(§5) The formulation was tested against Pseudomonas aeruginosa, Proteus mirabilis, Escherichia coli, Staphylococcus intermedius, Malessezia pachydermatis, and Candida albicans."}, "[7]": {"test_system": "Escherichia coli isolated from a dog with otitis externa", "assay": "MIC and MBC, isolates from dogs with otitis externa and pyoderma", "format": "cell-based", "settings": "E. coli", "description": "as §5"}, "Candida albicans": {"test_system": "Candida albicans", "assay": "MIC and MBC, isolates from dogs with otitis externa and pyoderma", "format": "cell-based", "settings": "C. albicans; multiple of the 1x stock solution of the tested composition", "description": "as §5"}, "Malassezia pachydermatis": {"test_system": "Malassezia pachydermatis", "assay": "MIC and MBC, isolates from dogs with otitis externa and pyoderma", "format": "cell-based", "settings": "M. pachydermatis; multiple of the 1x stock solution of the tested composition", "description": "as §5"}, "Proteus mirabilis": {"test_system": "Proteus mirabilis", "assay": "MIC and MBC, isolates from dogs with otitis externa and pyoderma", "format": "cell-based", "settings": "P. mirabilis; multiple of the 1x stock solution of the tested composition", "description": "as §5"}, "[8]": {"test_system": "Staphylococcus intermedius", "assay": "MIC and MBC, isolates from dogs with otitis externa and pyoderma", "format": "cell-based", "settings": "S. intermedius; multiple of the 1x stock solution of the tested composition", "description": "as §5"}, "[9]": {"test_system": "Pseudomonas aeruginosa isolated from a human burn patient", "assay": "MIC and MBC of Tris, EDTA, cocamidopropyl betaine and silver combinations", "format": "cell-based", "settings": "P. aeruginosa (human burn isolate); multiple of the 1x stock solution of the tested composition"}, "[10]": {"test_system": "Staphylococcus aureus isolated from a human burn patient", "assay": "MIC and MBC of Tris, EDTA, cocamidopropyl betaine and silver combinations", "format": "cell-based", "settings": "S. aureus (human burn isolate); multiple of the 1x stock solution of the tested composition"}, "Aeromonas sobria": {"test_system": "Aeromonas sobria", "assay": "MIC and FIC of EDTA and neomycin, Aeromonas isolated from ulcerated fish", "format": "cell-based", "settings": "A. sobria; EDTA in 50 mM Tris", "description": "(§6) This example describes a method for determining the FIC values set forth in Example 4. […] Agents and Chem. pp. 210-217 (1967); and Sparks et al., Vet. Res. Comm. 18:241-249 (1994). Each of the foregoing publications are incorporated herein by reference. […] Then 0.05 ml of an 18-hour old culture of a test organism, containing […] colony-forming units (CFU) ml, were added to each well. Controls for the culture and media were included in each plate. Plates were covered and incubated at 37° C. for 18-24 hours. A numerical score or Fractional Inhibitory Concentration (FIC) index was determined. The FIC index is equal to the sum of the values of FIC for the individual drugs: An FIC index greater than 1.0 indicated an antagonistic interaction, an FIC index of 1.0 indicated addition, and an FIC index of less than or equal to 0.5 indicated synergism between the two test agents."}, "Aeromonas caviae": {"test_system": "Aeromonas caviae", "assay": "MIC and FIC of EDTA and neomycin, Aeromonas isolated from ulcerated fish", "format": "cell-based", "settings": "A. caviae; EDTA in 50 mM Tris", "description": "as §6"}, "[11]": {"settings": "neomycin co-administered with EDTA in 50 mM Tris"}, "[12]": {"settings": "multiple of the 1x stock solution of the tested composition"}, "[13]": {"settings": "EDTA co-administered with neomycin in 50 mM Tris"}}, "data": [{"compound": "C[C@H]1[C@H](NC(=O)/C(=N\\OC(C)(C)C(=O)O)c2csc(N)n2)C(=O)N1S(=O)(=O)O", "note": "[Azactam]", "values": [{"measurement": "healing of visible ulcers", "setting": "[1]", "value": "failed to heal visible ulcers"}]}, {"compound": "NCC[C@H](O)C(=O)N[C@@H]1C[C@H](N)[C@@H](O[C@H]2O[C@H](CN)[C@@H](O)[C@H](O)[C@H]2O)[C@H](O)[C@H]1O[C@H]1O[C@H](CO)[C@@H](O)[C@H](N)[C@H]1O", "note": "[Amikacin]", "values": [{"measurement": "healing of visible ulcers", "setting": "[1]", "value": "failed to heal visible ulcers"}]}, {"compound": "neomycin", "values": [{"measurement": "MBC, Individually Administered", "setting": "Pseudomonas aeruginosa [2]; neomycin alone in 50 mM Tris", "value": 5000, "unit": "µg/mL"}, {"measurement": "MBC, Co-administered", "setting": "Pseudomonas aeruginosa [2]; [11]", "value": 40, "unit": "µg/mL"}, {"measurement": "MBC, Individually Administered", "setting": "Enterococcus faecalis; neomycin alone in 50 mM Tris", "value": 25000, "unit": "µg/mL"}, {"measurement": "MBC, Co-administered", "setting": "Enterococcus faecalis; [11]", "value": 6250, "unit": "µg/mL"}, {"measurement": "MBC, Co-administered", "setting": "Staphylococcus aureus; [11]", "value": 1560, "unit": "µg/mL"}, {"measurement": "Antibiotic resistance profile", "setting": "[3]", "value": "R"}, {"measurement": "Antibiotic resistance profile", "setting": "[4]", "value": "R"}, {"measurement": "Antibiotic resistance profile", "setting": "[5]", "value": "R"}]}, {"compound": "cocamidopropyl betaine", "values": [{"measurement": "MBC", "setting": "Pseudomonas aeruginosa [6]", "value": 0.5, "unit": "x"}, {"measurement": "MIC", "setting": "Pseudomonas aeruginosa [6]", "value": 0.25, "unit": "x"}, {"measurement": "MBC", "setting": "[7]", "value": "50% of stock solution"}, {"measurement": "MIC", "setting": "[7]", "value": "25% of stock solution"}, {"measurement": "MBC", "setting": "[7]; [12]", "value": 0.5, "unit": "x"}, {"measurement": "MIC", "setting": "[7]; [12]", "value": 0.25, "unit": "x"}, {"measurement": "MBC", "setting": "Candida albicans", "value": 0.003, "unit": "x"}, {"measurement": "MIC", "setting": "Candida albicans", "value": 0.001, "unit": "x"}, {"measurement": "MBC", "setting": "Malassezia pachydermatis", "value": 0.003, "unit": "x"}, {"measurement": "MIC", "setting": "Malassezia pachydermatis", "value": 0.001, "unit": "x"}, {"measurement": "MBC", "setting": "Proteus mirabilis", "value": 0.5, "unit": "x"}, {"measurement": "MIC", "setting": "Proteus mirabilis", "value": 0.25, "unit": "x"}, {"measurement": "MBC", "setting": "[8]", "value": 0.001, "unit": "x"}, {"measurement": "MIC", "setting": "[8]", "value": 0.001, "unit": "x"}, {"measurement": "MBC", "setting": "[9]", "value": 0.5, "unit": "x"}, {"measurement": "MIC", "setting": "[9]", "value": 0.25, "unit": "x"}, {"measurement": "MBC", "setting": "[10]", "value": 0.001, "unit": "x"}, {"measurement": "MIC", "setting": "[10]", "value": 0.001, "unit": "x"}]}, {"compound": "gentamicin [GM]", "values": [{"measurement": "Antibiotic resistance profile", "setting": "[3]", "value": "S"}, {"measurement": "Antibiotic resistance profile", "setting": "[4]", "value": "I"}, {"measurement": "Antibiotic resistance profile", "setting": "[5]", "value": "R"}]}, {"compound": "O=C(O)CN(CCN(CC(=O)O)CC(=O)O)CC(=O)O", "note": "[EDTA, ethylenediaminetetraacetate]", "values": [{"measurement": "MBC, Individually Administered", "setting": "Pseudomonas aeruginosa [2]; EDTA alone in 50 mM Tris", "value": 250, "unit": "mM"}, {"measurement": "MBC, Co-administered", "setting": "Pseudomonas aeruginosa [2]; [13]", "value": 20.0, "unit": "mM"}, {"measurement": "MBC, Individually Administered", "setting": "Enterococcus faecalis; EDTA alone in 50 mM Tris", "value": 250, "unit": "mM"}, {"measurement": "MBC, Co-administered", "setting": "Enterococcus faecalis; [13]", "value": 62.5, "unit": "mM"}, {"measurement": "MBC, Co-administered", "setting": "Staphylococcus aureus; [13]", "value": 3.9, "unit": "mM"}, {"measurement": "MIC, EDTA alone", "setting": "Aeromonas sobria", "value": 15.6}, {"measurement": "MIC, EDTA alone", "setting": "Aeromonas caviae", "value": "<0.49"}]}, {"compound": "oxacillin/methicillin", "values": [{"measurement": "Antibiotic resistance profile", "setting": "[3]", "value": "R"}, {"measurement": "Antibiotic resistance profile", "setting": "[4]", "value": "R"}, {"measurement": "Antibiotic resistance profile", "setting": "[5]", "value": "R"}]}, {"compound": "CN[C@H](CC(C)C)C(=O)N[C@H]1C(=O)N[C@@H](CC(N)=O)C(=O)N[C@H]2C(=O)N[C@H]3C(=O)N[C@H](C(=O)N[C@H](C(=O)O)c4cc(O)cc(O)c4-c4cc3ccc4O)[C@H](O)c3ccc(c(Cl)c3)Oc3cc2cc(c3O[C@@H]2O[C@H](CO)[C@@H](O)[C@H](O)[C@H]2O[C@H]2C[C@](C)(N)[C@H](O)[C@H](C)O2)Oc2ccc(cc2Cl)[C@H]1O", "note": "[Va, vancomycin]", "values": [{"measurement": "Antibiotic resistance profile", "setting": "[3]", "value": "S"}, {"measurement": "Antibiotic resistance profile", "setting": "[4]", "value": "R"}, {"measurement": "Antibiotic resistance profile", "setting": "[5]", "value": "R"}]}, {"compound": "CCN1CCN(c2cc3c(cc2F)c(=O)c(C(=O)O)cn3C2CC2)CC1", "note": "[Baytril]", "values": [{"measurement": "healing of visible ulcers", "setting": "[1]", "value": "failed to heal visible ulcers"}]}]}
